The source of these data is patent publication US20260216170A1, “TETRAHYDROISOQUINOLINE HETEROBIFUNCTIONAL BCL-XL DEGRADERS” (Treeline Biosciences, Inc., priority 2023, published 2026).

In this test the target is T1, Human BCL-XL protein (N-terminal HiBiT tagged BCL-XL expressed in HT1080 cells) (Homo sapiens, UniProt Q07817).
T1 construct: expressed in transfected cells; host or cells: HT-1080 (ATCC CCL-121), stably transduced with lentivirus pLV-UBC-N-HiBiT-BCL-XL-PGK-puro and selected with puromycin
T1 sequence (Q07817 whole entry): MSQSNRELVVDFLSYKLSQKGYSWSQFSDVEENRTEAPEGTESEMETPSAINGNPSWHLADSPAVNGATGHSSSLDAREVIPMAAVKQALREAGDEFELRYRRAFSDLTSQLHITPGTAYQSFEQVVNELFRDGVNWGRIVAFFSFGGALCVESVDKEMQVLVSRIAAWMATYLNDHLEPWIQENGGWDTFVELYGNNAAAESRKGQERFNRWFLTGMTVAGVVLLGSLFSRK
Nature of the test: HiBiT Based Degradation Assay. It is filed as cell-based. To be noted: 24 hours incubation; for DC50: BCL-XL degradation, HT1080 cells expressing N-HiBiT-BCL-XL, normalized with DMSO control, geometric mean for multiple data points, read-out: EC50 (24 h); for Ymin (24 h): bottom of BCL-XL degradation curve (remaining HiBiT-BCL-XL signal vs DMSO control), HT1080 cells. The procedure, abridged: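 BCL-XL degradation was read as Nano-Glo HiBiT lytic luminescence relative to DMSO after a 24 h compound treatment of HT1080 cells carrying stably integrated N-HiBiT-BCL-XL. EC50 values come from four-parameter logistic curves, with the hook-curve minimum fixed as bottom, and are geometric means where tested repeatedly.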

Turning to `COc1c(NC(=O)CN2CCC3(CC2)CC(COc2ccc(-c4ccc(N5CCc6cccc(C(=O)Nc7nc8ccccc8s7)c6C5)nc4C(=O)O)c(C(F)(F)F)c2)C3)ccc2c(C3CCC(=O)NC3=O)nn(C)c12` (stereo not shown) [Compound 144, 6-(8-(benzo[d]thiazol-2-ylcarbamoyl)-3,4-dihydroisoquinolin-2(1H)-yl)-3-(4-((7-(2-((3-(2,6-dioxopiperidin-3-yl)-7-methoxy-1-methyl-1H-indazol-6-yl)amino)-2-oxoethyl)-7-azaspiro[3.5]nonan-2-yl)methoxy)-2-(trifluoromethyl)phenyl)picolinic acid], the DC50 was in the range of 10 to 100 nM and the “Ymin (24 h)” value is given as “B (30% ≤ Ymin < 50%)”.

As to `Cn1nc(C2CCC(=O)NC2=O)c2ccc(NC(=O)CN3CCC(CCCOc4cccc(-c5ccc(N6CCc7cccc(C(=O)Nc8nc9ccccc9s8)c7C6)nc5C(=O)O)c4C(F)(F)F)CC3)nc21` (stereo not shown) [Compound 145], the DC50 lay within 10 to 100 nM and the “Ymin (24 h)” value is given as “C (50% ≤ Ymin < 70%)”.

`Cn1nc(C2CCC(=O)NC2=O)c2ccc(NC(=O)CN3CCC(CCCOc4ccc(-c5ccc(N6CCc7cccc(C(=O)Nc8nc9ccccc9s8)c7C6)nc5C(=O)O)c(C(F)(F)F)c4)CC3)nc21` (stereo not shown) [Compound 146]: the DC50 fell in the range of 10 to 100 nM and the “Ymin (24 h)” value is given as “B (30% ≤ Ymin < 50%)”.

Regarding `Cn1nc(C2CCC(=O)NC2=O)c2ccc(NC(=O)CN3CCC4(CC3)CC(COc3cccc(-c5ccc(N6CCc7cccc(C(=O)Nc8nc9ccccc9s8)c7C6)nc5C(=O)O)c3C(F)(F)F)C4)nc21` (stereo not shown) [Compound 147], the DC50 lay within 10 to 100 nM and the “Ymin (24 h)” value was “B (30% ≤ Ymin < 50%)”.

As to `Cn1nc(C2CCC(=O)NC2=O)c2ccc(NC(=O)CN3CCC4(CC3)CC(COc3ccc(-c5ccc(N6CCc7cccc(C(=O)Nc8nc9ccccc9s8)c7C6)nc5C(=O)O)c(C(F)(F)F)c3)C4)nc21` (stereo not shown) [Compound 148], the DC50 lay within 10 to 100 nM and the “Ymin (24 h)” value is “B (30% ≤ Ymin < 50%)”.

With `Cc1c(OCC2CC3(CCN(CCCc4ccc5c(C6CCC(=O)NC6=O)nn(C)c5c4)CC3)C2)cccc1-c1ccc(N2CCc3cccc(C(=O)Nc4nc5ccccc5s4)c3C2)nc1C(=O)O` (stereo not shown) [Compound 149, 6-[8-(1,3-benzothiazol-2-ylcarbamoyl)-3,4-dihydro-1H-isoquinolin-2-yl]-3-[3-[[7-[3-[3-(2,6-dioxo-3-piperidyl)-1-methyl-indazol-6-yl]propyl]-7-azaspiro[3.5]nonan-2-yl]methoxy]-2-methyl-phenyl]pyridine-2-carboxylic acid], the DC50 was < 10 nM and the “Ymin (24 h)” value is reported as “A (Ymin < 30%)”.

For `Cc1c(OCCCC2CCN(CCNc3ccc4c(C5CCC(=O)NC5=O)nn(C)c4c3)CC2)cccc1-c1ccc(N2CCc3cccc(C(=O)Nc4nc5ccccc5s4)c3C2)nc1C(=O)O` (stereo not shown) [Compound 150, 6-[8-(1,3-benzothiazol-2-ylcarbamoyl)-3,4-dihydro-1H-isoquinolin-2-yl]-3-[3-[3-[1-[2-[[3-(2,6-dioxo-3-piperidyl)-1-methyl-indazol-6-yl]amino]ethyl]-4-piperidyl]propoxy]-2-methyl-phenyl]pyridine-2-carboxylic acid], the DC50 was < 10 nM and the “Ymin (24 h)” value is “B (30% ≤ Ymin < 50%)”.

In the case of `Cc1cc(OCCCC2CCN(CCCc3ccc4c(C5CCC(=O)NC5=O)nn(C)c4c3)CC2)ccc1-c1ccc(N2CCc3cccc(C(=O)Nc4nc5ccccc5s4)c3C2)nc1C(=O)O` (stereo not shown) [Compound 151, 6-(8-(benzo[d]thiazol-2-ylcarbamoyl)-3,4-dihydroisoquinolin-2(1H)-yl)-3-(4-(3-(1-(3-(3-(2,6-dioxopiperidin-3-yl)-1-methyl-1H-indazol-6-yl)propyl)piperidin-4-yl)propoxy)-2-methylphenyl)picolinic acid], the DC50 was < 10 nM and the “Ymin (24 h)” value is on record as “A (Ymin < 30%)”.

As for `Cc1c(OCC2CC3(CCN(CCOc4ccc5c(C6CCC(=O)NC6=O)nn(C)c5c4)CC3)C2)cccc1-c1ccc(N2CCc3cccc(C(=O)Nc4nc5ccccc5s4)c3C2)nc1C(=O)O` (stereo not shown) [Compound 152, 6-(8-(benzo[d]thiazol-2-ylcarbamoyl)-3,4-dihydroisoquinolin-2(1H)-yl)-3-(3-((7-(2-((3-(2,6-dioxopiperidin-3-yl)-1-methyl-1H-indazol-6-yl)oxy)ethyl)-7-azaspiro[3.5]nonan-2-yl)methoxy)-2-methylphenyl)picolinic acid], the DC50 was < 10 nM and the “Ymin (24 h)” value is given as “B (30% ≤ Ymin < 50%)”.

On to `Cc1c(OCC2CC3(CCN(CCNc4ccc5c(C6CCC(=O)NC6=O)nn(C)c5c4)CC3)C2)cccc1-c1ccc(N2CCc3cccc(C(=O)Nc4nc5ccccc5s4)c3C2)nc1C(=O)O` (stereo not shown) [Compound 153, 6-[8-(1,3-benzothiazol-2-ylcarbamoyl)-3,4-dihydro-1H-isoquinolin-2-yl]-3-[3-[[7-[2-[[3-(2,6-dioxo-3-piperidyl)-1-methyl-indazol-6-yl]amino]ethyl]-7-azaspiro[3.5]nonan-2-yl]methoxy]-2-methyl-phenyl]pyridine-2-carboxylic acid], for which the DC50 is < 10 nM and the “Ymin (24 h)” value is listed as “A (Ymin < 30%)”.

Take `Cn1nc(C2CCC(=O)NC2=O)c2ccc(NC(=O)CN3CCC4(CC3)CC(Oc3cccc(-c5ccc(N6CCc7ccnc(C(=O)Nc8nc9ccccc9s8)c7C6)nc5C(=O)O)c3C(F)(F)F)C4)cc21` (stereo not shown) [Compound 154, 6-[8-(1,3-benzothiazol-2-ylcarbamoyl)-3,4-dihydro-1H-2,7-naphthyridin-2-yl]-3-[3-[[7-[2-[[3-(2,6-dioxo-3-piperidyl)-1-methyl-indazol-6-yl]amino]-2-oxo-ethyl]-7-azaspiro[3.5]nonan-2-yl]oxy]-2-(trifluoromethyl)phenyl]pyridine-2-carboxylic acid]: the DC50 is < 10 nM and the “Ymin (24 h)” value is “B (30% ≤ Ymin < 50%)”.

Take `Cn1nc(C2CCC(=O)NC2=O)c2ccc(NC(=O)CN3CCC4(CC3)CC(Oc3ccc(-c5ccc(N6CCc7cccc(C(=O)Nc8nc9ccccc9s8)c7C6)nc5C(=O)O)c(C(F)(F)F)c3)C4)cc21` (stereo not shown) [Compound 155, 6-(8-(benzo[d]thiazol-2-ylcarbamoyl)-3,4-dihydroisoquinolin-2(1H)-yl)-3-(4-((7-(2-((3-(2,6-dioxopiperidin-3-yl)-1-methyl-1H-indazol-6-yl)amino)-2-oxoethyl)-7-azaspiro[3.5]nonan-2-yl)oxy)-2-(trifluoromethyl)phenyl)picolinic acid]: the DC50 was < 10 nM and the “Ymin (24 h)” value was “A (Ymin < 30%)”.

On to `Cc1c(OCCCC2CCN(CCOc3ccc4c(C5CCC(=O)NC5=O)nn(C)c4c3)CC2)cccc1-c1ccc(N2CCc3cccc(C(=O)Nc4nc5ccccc5s4)c3C2)nc1C(=O)O` (stereo not shown) [Compound 156], for which the DC50 was < 10 nM and the “Ymin (24 h)” value is reported as “B (30% ≤ Ymin < 50%)”.

Turning to `Cn1nc(C2CCC(=O)NC2=O)c2ccc(NC(=O)CN3CCC(CCCOc4ccc(-c5ccc(N6CCc7ccnc(C(=O)Nc8nc9ccccc9s8)c7C6)nc5C(=O)O)c(C(F)(F)F)c4)CC3)cc21` (stereo not shown) [Compound 157, 6-[8-(1,3-benzothiazol-2-ylcarbamoyl)-3,4-dihydro-1H-2,7-naphthyridin-2-yl]-3-[4-[3-[1-[2-[[3-(2,6-dioxo-3-piperidyl)-1-methyl-indazol-6-yl]amino]-2-oxo-ethyl]-4-piperidyl]propoxy]-2-(trifluoromethyl)phenyl]pyridine-2-carboxylic acid], the DC50 was 10 to 100 nM and the “Ymin (24 h)” value was “A (Ymin < 30%)”.

Consider `COc1c(NC(=O)CN2CCC(CCCOc3ccc(-c4ccc(N5CCc6ccnc(C(=O)Nc7nc8ccccc8s7)c6C5)nc4C(=O)O)c(C(F)(F)F)c3)CC2)ccc2c(C3CCC(=O)NC3=O)nn(C)c12` (stereo not shown) [Compound 158, 6-[8-(1,3-benzothiazol-2-ylcarbamoyl)-3,4-dihydro-1H-2,7-naphthyridin-2-yl]-3-[4-[3-[1-[2-[[3-(2,6-dioxo-3-piperidyl)-7-methoxy-1-methyl-indazol-6-yl]amino]-2-oxo-ethyl]-4-piperidyl]propoxy]-2-(trifluoromethyl)phenyl]pyridine-2-carboxylic acid], for which the DC50 lay within 10 to 100 nM and the “Ymin (24 h)” value is “B (30% ≤ Ymin < 50%)”.

`Cn1nc(C2CCC(=O)NC2=O)c2ccc(NC(=O)CN3CCC(CCCOc4cccc(-c5ccc(N6CCc7ccnc(C(=O)Nc8nc9ccccc9s8)c7C6)nc5C(=O)O)c4C(F)(F)F)CC3)cc21` (stereo not shown) [Compound 159, 6-[8-(1,3-benzothiazol-2-ylcarbamoyl)-3,4-dihydro-1H-2,7-naphthyridin-2-yl]-3-[3-[3-[1-[2-[[3-(2,6-dioxo-3-piperidyl)-1-methyl-indazol-6-yl]amino]-2-oxo-ethyl]-4-piperidyl]propoxy]-2-(trifluoromethyl)phenyl]pyridine-2-carboxylic acid]: the DC50 lay within 10 to 100 nM and the “Ymin (24 h)” value is given as “B (30% ≤ Ymin < 50%)”.

With `Cn1nc(C2CCC(=O)NC2=O)c2ccc(NC(=O)CN3CCC4(CC3)CC(COc3ccc(-c5ccc(N6CCc7ccnc(C(=O)Nc8nc9ccccc9s8)c7C6)nc5C(=O)O)c(C(F)(F)F)c3)C4)cc21` (stereo not shown) [Compound 160, 6-[8-(1,3-benzothiazol-2-ylcarbamoyl)-3,4-dihydro-1H-2,7-naphthyridin-2-yl]-3-[4-[[7-[2-[[3-(2,6-dioxo-3-piperidyl)-1-methyl-indazol-6-yl]amino]-2-oxo-ethyl]-7-azaspiro[3.5]nonan-2-yl]methoxy]-2-(trifluoromethyl)phenyl]pyridine-2-carboxylic acid], the DC50 was < 10 nM and the “Ymin (24 h)” value was “B (30% ≤ Ymin < 50%)”.
